Source: US6194451A, “Matrix metalloproteinase inhibitors” (Pharmacia & Upjohn S.p.A., priority 1997, dated 2001)

Tests used:
[1] = Aqueous solubility; type: physicochemical; details: water, pH 7.0, 25° C.
Experimental: Further, several compounds of formula (I), in particular when R2 is hydroxy, and when R1 is hydroxymethyl, have enhanced water solubility as compared to the vast majority of MMP inhibitors of the prior art. An aqueous solubility threshold, which may vary widely but can be roughly set in the range of 1-10 mg/mL, makes systemic administration easy, and more than often is essential to good oral bioavailability.

[2] = Pharmacokinetic Assay (Protocol C): plasma levels after i.v. and oral administration to rats; type: in vivo, rat (male Sprague-Dawley); details: 15 mg/kg
Experimental: Male rats (Sprague-Dawley; body weight about 250-300 g) were acclimatized for about one week before the start of the study. […] Before treatment, rats were overnight fasted. For each compound to be assessed, three rats were treated intravenously (injection in the tail vein as a bolus) with a single dose of 15 mg/kg (as free base or free acid if needed) body weight. Other three rats were treated orally (single bolus dose by gastric gavage) with 15 mg/kg of the same compound. In same cases, according to the detection limit of each particular compound, and its availability in stock, these standard doses were modified as needed.
Blood samples were collected into syringes especially prepared for use with the cannulated animals via the SCV cannula. Under standard conditions, blood samples (0.2 mL) were transferred into heparinized tubes at the following times: 0 (pre-dose), 2, 4, 8, 16, 30, 45, 60, 90 min, 2, 4, 6, 8 and 24 h after iv administration; 0 (pre-dose), 5, 10, 30, 45, 60, 90 min, 2, 4, 6, 8, and 24 h after oral administration. Plasma was obtained immediately by centrifugation (about 10,000 rpm for 3 min) and stored at -80° C. till analysis. Plasma samples were assayed for parent drug concentrations using an appropriate analytical method. Under standard conditions, liquid chromatography--tandem mass spectrometry (LC/MS-MS) was used.
Non-compartmental pharmacokinetic calculations were performed with the aid of Pharm-NCA package (SIMED, France). Maximum plasma concentration, Cmax, and the corresponding time, tmax, were read as the coordinates of the highest raw-data point for individual plasma profiles. Terminal phase was evaluated by graphic judgement by eye; terminal rate constant, was calculated as the slope of the terminal linear portion of natural log-transformed plasma concentrations vs. time curve, obtained using linear regression. Terminal half-life, t1/2,z, was calculated as ln(2)/lz. The area under the plasma concentration-time curve was estimated by the linear trapezoidal rule up to the last measured concentration (AUC(0-tz)) and extrapolated to infinity assuming monoexponential decay, using the formula AUC=AUC(0-tz)+C(tz)/lz, where C(tz) is the measured concentration of the last point with detectable concentration. Following iv dosing, systemic clearance was obtained using the formula Cl=Dose/AUC. According to Protocol C, the pharmacokinetic in rats of some representative compounds within the present invention was evaluated. Significant pharmacokinetic data obtained in rats at a 15 mg/kg dose were as follows: […]

solubility [1]: > 15 mg/mL
AUC iv ([2]; iv): 1.53 mg·min/mL
half-life ([2]; rat, plasma, terminal half-life, read-out: t1/2,z (converted)): 5.4 h
clearance ([2]; rat, plasma, iv): 9.89 mL/min/kg
AUC ([2]; rat, plasma, oral): 1100 ng·h/mL
SMILES: CNC(=O)[C@@H](NC(=O)[C@H](CC(C)C)[C@](O)(CO)C(=O)NO)C(C)(C)C [Example 3]
plasma clearance compared with literature hydroxamic acid MMP inhibitors ([2]; to our best knowledge): inferior to that reported for any hydroxamic acid MMP inhibitor disclosed in the literature
